From DBAASP
Converted amounts (≈) assume the structure as drawn.

What was measured:
Experiment in all cases: ≥ marks a high value that may be exact or a test limit, other limits are often not marked, values filed in µg/mL are converted to µM
[1] = test system: Candida albicans NCPF 1467
[2] = test system: Staphylococcus aureus NCTC 10788
[3] = test system: Escherichia coli ATCC 25922
[4] = test system: Listeria monocytogenes ATCC 7644
Streptococcus agalactiae = test system: Streptococcus agalactiae
[5] = test system: Salmonella enterica subsp. enterica serovar Typhi ATCC 6399
Shigella flexneri = test system: Shigella flexneri
[6] = test system: Staphylococcus aureus ATCC 25923
[7] = test system: Bacillus subtilis ATCC 6633
[8] = test system: Candida albicans ATCC 20032
[9] = test system: Staphylococcus aureus 127/08
[10] = test system: Acinetobacter baumannii NM8
[11] = test system: Acinetobacter baumannii NM35
[12] = test system: Stenotrophomonas maltophilia B32/1
[13] = test system: Stenotrophomonas maltophilia B32/4
[14] = test system: Escherichia coli ATCC 25726
[15] = test system: Staphylococcus epidermidis C621
[16] = test system: Corynebacterium xerosis C875
[17] = test system: Pseudomonas aeruginosa ATCC 27853
Escherichia coli DC2 = test system: Escherichia coli DC2
Escherichia coli UB1005 = test system: Escherichia coli UB1005
Escherichia coli = test system: Escherichia coli
Enterobacter cloacae = test system: Enterobacter cloacae
Bacillus subtilis = test system: Bacillus subtilis
[18] = test system: Salmonella enterica subsp. enterica serovar Typhi
[19] = test system: Candida albicans ATCC 90028
Pseudomonas aeruginosa = test system: Pseudomonas aeruginosa
Staphylococcus aureus = test system: Staphylococcus aureus
[20] = test system: Escherichia coli CVCC 1570
[21] = test system: Bacillus pumilus CVCC 709
[22] = test system: Micrococcus luteus CVCC 1600
[23] = test system: Staphylococcus aureus CVCC 1882
[24] = test system: Bacillus subtilis CVCC 717

CC[C@H](C)[C@H](NC(=O)[C@H](C)NC(=O)CNC(=O)[C@H](CC(C)C)NC(=O)[C@@H](N)Cc1ccccc1)C(=O)N[C@@H](C)C(=O)N[C@@H](C)C(=O)N[C@@H](C)C(=O)N[C@@H](CC(C)C)C(=O)N1CCC[C@H]1C(=O)N[C@@H](Cc1cnc[nH]1)C(=O)N[C@H](C(=O)N[C@H](C(=O)N[C@@H](CC(N)=O)C(=O)N[C@@H](C)C(=O)N[C@H](C(=O)N[C@H](C(=O)N[C@@H](CC(N)=O)C(=O)N[C@@H](C)C(=O)N[C@@H](CC(C)C)C(=O)O)[C@@H](C)O)C(C)C)[C@@H](C)CC)C(C)C [FLGAIAAALPHVINAVTNAL]
MIC [1]: ≥ 120 µM | MIC [2]: 16 µM (≈ 31.6 µg/mL)

CC[C@H](C)[C@H](NC(=O)[C@H](CC(C)C)NC(=O)[C@H](CCCCN)NC(=O)[C@H](CC(C)C)NC(=O)[C@H](C)NC(=O)CNC(=O)[C@H](CCCCN)NC(=O)[C@H](C)NC(=O)[C@H](CC(C)C)NC(=O)[C@H](C)NC(=O)CNC(=O)[C@H](Cc1c[nH]c2ccccc12)NC(=O)[C@@H](N)Cc1ccccc1)C(=O)NCC(=O)N[C@H](C(=O)NCC(=O)N[C@@H](CO)C(=O)N[C@@H](CC(C)C)C(=O)N[C@@H](Cc1ccccc1)C(=O)N[C@@H](CO)C(=O)N[C@@H](CO)C(=O)N[C@@H](Cc1ccccc1)C(=O)N[C@@H](CO)C(=O)N[C@@H](CCCCN)C(=O)N[C@@H](CCCCN)C(=O)N[C@@H](CC(=O)O)C(=O)O)C(C)C [FWGALAKGALKLIGVGSLFSSFSKKD]
MIC [3]: 37.5 µM (≈ 102 µg/mL) | MIC [4]: ≥ 37.5 µM | MIC (Streptococcus agalactiae): ≥ 37.5 µM | MIC [5]: ≥ 37.5 µM | MIC (Shigella flexneri): ≥ 37.5 µM | MIC [6]: 75 µM (≈ 205 µg/mL) | MIC [7]: ≥ 37.5 µM

CC[C@H](C)[C@H](NC(=O)CN)C(=O)NCC(=O)NCC(=O)N[C@@H](C)C(=O)N[C@@H](CC(C)C)C(=O)N[C@@H](CC(C)C)C(=O)N[C@@H](CO)C(=O)N[C@H](C(=O)NCC(=O)N[C@@H](CCCCN)C(=O)N[C@@H](CO)C(=O)N[C@@H](C)C(=O)N[C@@H](CC(C)C)C(=O)N[C@@H](CCCCN)C(=O)NCC(=O)N[C@@H](CC(C)C)C(=O)N[C@H](C(=O)N[C@@H](CCCCN)C(=O)NCC(=O)N[C@@H](CC(C)C)C(=O)N[C@@H](C)C(=O)N[C@@H](CCC(=O)O)C(=O)N[C@@H](Cc1cnc[nH]1)C(=O)N[C@@H](Cc1ccccc1)C(N)=O)[C@@H](C)O)C(C)C [GIGGALLSVGKSALKGLTKGLAEHF]
MIC [3]: > 41.2 µM | MIC [8]: ≥ 41.2 µM | MIC [6]: 30.9 µM (≈ 75 µg/mL) | MIC [7]: ≥ 41.2 µM

CC[C@H](C)[C@@H]1NC(=O)[C@H](CCCCN)NC(=O)[C@@H](NC(=O)[C@H](C)NC(=O)[C@@H](NC(=O)[C@H](CC(C)C)NC(=O)[C@H](CC(=O)O)NC(=O)[C@@H](NC(=O)CNC(=O)[C@H](CC(C)C)NC(=O)[C@H](CCCCN)NC(=O)[C@H](C)NC(=O)[C@H](CC(C)C)NC(=O)[C@H](CC(=O)O)NC(=O)[C@H](CCCCN)NC(=O)CNC(=O)[C@H](CC(C)C)NC(=O)CN)C(C)C)C(C)C)CSSC[C@@H](C(=O)O)NC(=O)[C@H](CCC(N)=O)NC(=O)[C@H](CCCCN)NC(=O)[C@H](CO)NC1=O [GLGKDLAKLGVDLVACKISKQC]
MIC [9]: ≥ 200 µM | MIC [10]: ≥ 200 µM | MIC [11]: ≥ 200 µM | MIC [12]: ≥ 200 µM | MIC [13]: ≥ 200 µM | MIC [14]: ≥ 200 µM | MIC [6]: > 200 µM

CC[C@H](C)[C@H](N)C(=O)N[C@@H](CC(C)C)C(=O)NCC(=O)N[C@@H](CC(C)C)C(=O)N[C@H](C(=O)N[C@H](C(=O)N[C@@H](CO)C(=O)N[C@H](C(=O)N[C@H](C(=O)NCC(=O)N[C@@H](CC(N)=O)C(=O)N[C@H](C(=O)N[C@@H](CC(C)C)C(=O)NCC(=O)NCC(=O)N[C@@H](CC(C)C)C(=O)N[C@@H](CC(C)C)C(=O)N[C@@H](CCCCN)C(=O)N[C@@H](CC(N)=O)C(=O)N[C@@H](CC(C)C)C(N)=O)C(C)C)[C@@H](C)CC)[C@@H](C)O)[C@@H](C)CC)C(C)C [ILGLVISTIGNVLGGLLKNL]
MIC [3]: > 49.8 µM | MIC [8]: ≥ 49.8 µM | MIC [6]: > 49.8 µM | MIC [7]: ≥ 49.8 µM

C[C@H](NC(=O)[C@H](C)NC(=O)[C@H](C)NC(=O)[C@H](Cc1c[nH]c2ccccc12)NC(=O)[C@H](Cc1ccccc1)NC(=O)[C@H](C)NC(=O)[C@H](C)NC(=O)[C@H](C)NC(=O)[C@H](C)NC(=O)[C@H](CCCCN)NC(=O)[C@H](CCCCN)NC(=O)[C@H](CCCCN)NC(=O)[C@H](CCCCN)NC(=O)[C@H](CCCCN)NC(=O)[C@@H](N)CCCCN)C(=O)N[C@@H](C)C(=O)N[C@@H](Cc1ccccc1)C(N)=O [KKKKKKAAAAFWAAAAF]
MIC [15]: 8 µM (≈ 14.7 µg/mL) | MIC [3]: 16 µM (≈ 29.4 µg/mL) | MIC [16]: 0.5 µM (≈ 0.918 µg/mL) | MIC [17]: 16 µM (≈ 29.4 µg/mL) | MIC (Escherichia coli DC2): 0.5 µM (≈ 0.918 µg/mL) | MIC (Escherichia coli UB1005): 2 µM (≈ 3.67 µg/mL)

CC(C)C[C@H](NC(=O)[C@H](CCCCN)NC(=O)[C@H](CCCN=C(N)N)NC(=O)[C@H](Cc1ccccc1)NC(=O)[C@H](Cc1ccccc1)NC(=O)[C@H](CCCCN)NC(=O)[C@H](CCCCN)NC(=O)[C@H](Cc1ccccc1)NC(=O)[C@H](CCCN=C(N)N)NC(=O)[C@H](CCCCN)NC(=O)[C@@H](NC(=O)[C@@H](N)CC(C)C)C(C)C)C(=O)N[C@@H](CCCCN)C(=O)N[C@@H](CCCCN)C(=O)N[C@@H](CO)C(=O)N[C@H](C(=O)N[C@@H](CCCCN)C(=O)N[C@@H](CCCCN)C(N)=O)C(C)C [LVKRFKKFFRKLKKSVKK]
MIC [3]: 6.93 µM (≈ 16 µg/mL) | MIC (Escherichia coli): 55.4 µM (≈ 128 µg/mL) | MIC (Enterobacter cloacae): ≥ 55.4 µM | MIC (Bacillus subtilis): 27.7 µM (≈ 64 µg/mL) | MIC [17]: 27.7 µM (≈ 64 µg/mL) | MIC [18]: 0.866 µM (≈ 2 µg/mL) | MIC [19]: 27.7 µM (≈ 64 µg/mL) | MIC (Pseudomonas aeruginosa): 3.46 µM (≈ 8 µg/mL) | MIC [6]: 1.73 µM (≈ 4 µg/mL) | MIC (Staphylococcus aureus): 55.4 µM (≈ 128 µg/mL)

CC(C)C[C@H](NC(=O)[C@H](CCCCN)NC(=O)[C@H](CCCN=C(N)N)NC(=O)[C@H](Cc1ccccc1)NC(=O)[C@H](Cc1ccccc1)NC(=O)[C@H](CCCCN)NC(=O)[C@H](CCCCN)NC(=O)[C@H](Cc1ccccc1)NC(=O)[C@H](CCCN=C(N)N)NC(=O)[C@H](CCCCN)NC(=O)[C@@H](NC(=O)[C@@H](N)CC(C)C)C(C)C)C(=O)N[C@@H](CCCCN)C(=O)N[C@@H](CCCCN)C(=O)N[C@@H](CO)C(=O)N[C@H](C(=O)N[C@@H](CCCCN)C(N)=O)C(C)C [LVKRFKKFFRKLKKSVK]
MIC [3]: 117 µM (≈ 256 µg/mL) | MIC (Escherichia coli): 14.7 µM (≈ 32 µg/mL) | MIC (Enterobacter cloacae): 14.7 µM (≈ 32 µg/mL) | MIC (Bacillus subtilis): 14.7 µM (≈ 32 µg/mL) | MIC [17]: 29.3 µM (≈ 64 µg/mL) | MIC [18]: 0.917 µM (≈ 2 µg/mL) | MIC [19]: 14.7 µM (≈ 32 µg/mL) | MIC (Pseudomonas aeruginosa): 1.83 µM (≈ 4 µg/mL) | MIC [6]: 117 µM (≈ 256 µg/mL) | MIC (Staphylococcus aureus): 58.7 µM (≈ 128 µg/mL)

CC(C)[C@H](NC(=O)[C@@H]1CCCN1C(=O)[C@@H]1CCCN1C(=O)[C@@H](NC(=O)[C@@H](N)Cc1ccc(O)cc1)C(C)C)C(=O)N[C@@H](CCC(N)=O)C(=O)N[C@@H](CCCCN)C(=O)N1CCC[C@H]1C(=O)N[C@@H](Cc1cnc[nH]1)C(=O)N1CCC[C@H]1C(=O)N[C@@H](CC(N)=O)C(=O)NCC(=O)N1CCC[C@H]1C(=O)N[C@@H](CCCCN)C(=O)N[C@@H](Cc1ccccc1)C(=O)N1CCC[C@H]1C(=O)N[C@H](C(=O)N[C@@H](Cc1ccccc1)C(=O)N1CCC[C@H]1C(=O)O)[C@@H](C)O [YVPPVQKPHPNGPKFPTFP]
MIC [20]: 23.3 µM (≈ 50 µg/mL) | MIC [21]: 13.3 µM (≈ 28.6 µg/mL) | MIC [22]: 13.3 µM (≈ 28.6 µg/mL) | MIC [23]: ≥ 133 µM | MIC [24]: 16.7 µM (≈ 35.9 µg/mL)
